Test results taken from publication PMC6099693, “Design, Synthesis, and In Vitro Evaluation of Novel Histone H3 Peptide-Based LSD1 Inactivators Incorporating α,α-Disubstituted Amino Acids with γ-Turn-Inducing Structures” (Molecules : A Journal of Synthetic Chemistry and Natural …, 2018).
*1 amine or outer side, *2 acyl side, *3 side chain or, on linkers, in order; H or OH if unused. Where a SMILES comes first, the peptide text is derived from it. [ ]: non-standard residue; d: D form. Lys((1R,2S)-2-Ph-cPr) = N[C@@H](CCCCN[C@@H]1C[C@H]1c1ccccc1)C(=O)O; X1 = O=C(C1(N[*:1])C2CC3CC(C2)CC1C3)[*:2]; Ac6c = NC1(C(=O)O)CCCCC1; Aib = CC(C)(N)C(=O)O

What was measured:
Type in all cases: biochemical
MAO-B = target: T1, MAO-B (Homo sapiens, UniProt P27338); assay: MAO-Glo assay, MAO-B inhibitory activity; settings: Promega V1401; MAO-B 6 units/mL, substrate 16 µM; room temperature, 60 min; chemiluminescence; means ± S.D. of at least three experiments
T1 construct: purchased Sigma-Aldrich
T1 sequence (P27338 1-520): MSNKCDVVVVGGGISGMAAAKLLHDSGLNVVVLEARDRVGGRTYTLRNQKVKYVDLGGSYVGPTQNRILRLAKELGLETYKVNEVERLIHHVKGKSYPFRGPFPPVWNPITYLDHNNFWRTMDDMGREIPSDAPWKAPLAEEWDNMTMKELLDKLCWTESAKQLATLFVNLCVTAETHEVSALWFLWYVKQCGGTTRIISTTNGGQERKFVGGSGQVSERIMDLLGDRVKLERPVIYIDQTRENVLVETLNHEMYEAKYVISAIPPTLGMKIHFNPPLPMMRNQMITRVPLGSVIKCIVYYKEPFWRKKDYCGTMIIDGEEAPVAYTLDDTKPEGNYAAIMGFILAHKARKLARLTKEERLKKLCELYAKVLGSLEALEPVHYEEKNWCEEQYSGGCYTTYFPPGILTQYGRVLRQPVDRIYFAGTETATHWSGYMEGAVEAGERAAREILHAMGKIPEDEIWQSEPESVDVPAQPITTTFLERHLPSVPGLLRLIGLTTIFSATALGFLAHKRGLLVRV
Experimental: (§1) We assayed for the LSD1 inhibitory activities of novel peptides 2a–c. The assay was performed with an LSD1 Fluorometric Drug Discovery Kit (Enzo Life Sciences, New York, NY, USA, BML-AK544-0001). […] Next, we examined the time-dependency of LSD1 inhibition by peptides 2a–c. […] We also assayed for the inhibitory activities of monoamine oxidases (MAOs), which are FAD-dependent oxidases associated with neurotransmitter metabolism, to investigate the selectivity toward LSD1. For this investigation, we used a MAO-Glo^TM Assay System (Promega, Madison, WI, USA, V1401).
(§2) Assays for MAO inhibitory activity were carried out according to the supplier’s protocol using a MAO-Glo^TM Assay System (Promega, V1401). […] Reactions were stopped after 60 min by adding reconstituted Luciferin Detection Reagent (50 µL/well). Then, 20 min after the addition of this reagent, the chemiluminescence of the wells was measured with a 2030 ARVO^TM X3 Multilabel Reader (PerkinElmer). For data processing, the same procedure as that for LSD1 inhibitory activity was used.

LSD1 = target: T2, LSD1 (Homo sapiens, UniProt O60341); assay: LSD1 Fluorometric Drug Discovery Kit, LSD1 inhibitory activity; settings: for IC50: Enzo BML-AK544-0001 kit, 15 min pre-incubation with LSD1 (0.5 µg/well), room temperature, H3K4me2 peptide 20 µM, 30 min, fluorescence 540/590 nm, means ± S.D. of at least three experiments; for LSD1 inhibitory activity: comparison within Table 1
T2 construct: purchased Enzo Life Sciences BML-AK544-0001
Experimental: The assay was performed with an LSD1 Fluorometric Drug Discovery Kit (Enzo Life Sciences, New York, NY, USA, BML-AK544-0001). […] We also assayed for the inhibitory activities of monoamine oxidases (MAOs), which are FAD-dependent oxidases associated with neurotransmitter metabolism, to investigate the selectivity toward LSD1. For this investigation, we used a MAO-Glo^TM Assay System (Promega, Madison, WI, USA, V1401).
Inhibitors were pre-incubated with LSD1 (0.5 µg/well; room temperature; 15 min) before reactions were initiated by the addition of H3K4me2 peptide (2.3 µg/well, 20 µM) into all wells except the blank. After incubation (room temperature; 30 min), CeLLestial^TM Red and HRP in the assay buffer were added and the incubation was prolonged (room temperature; 5 min). […] IC50 values were determined by regression analysis of the concentration/inhibition data.

MAO-A = target: T3, MAO-A (Homo sapiens, UniProt P21397); assay: MAO-Glo assay, MAO-A inhibitory activity; settings: for IC50: Promega V1401, MAO-A 18 units/mL, substrate 160 µM, room temperature, 60 min, chemiluminescence, means ± S.D. of at least three experiments
T3 construct: purchased Sigma-Aldrich
T3 sequence (P21397 1-527): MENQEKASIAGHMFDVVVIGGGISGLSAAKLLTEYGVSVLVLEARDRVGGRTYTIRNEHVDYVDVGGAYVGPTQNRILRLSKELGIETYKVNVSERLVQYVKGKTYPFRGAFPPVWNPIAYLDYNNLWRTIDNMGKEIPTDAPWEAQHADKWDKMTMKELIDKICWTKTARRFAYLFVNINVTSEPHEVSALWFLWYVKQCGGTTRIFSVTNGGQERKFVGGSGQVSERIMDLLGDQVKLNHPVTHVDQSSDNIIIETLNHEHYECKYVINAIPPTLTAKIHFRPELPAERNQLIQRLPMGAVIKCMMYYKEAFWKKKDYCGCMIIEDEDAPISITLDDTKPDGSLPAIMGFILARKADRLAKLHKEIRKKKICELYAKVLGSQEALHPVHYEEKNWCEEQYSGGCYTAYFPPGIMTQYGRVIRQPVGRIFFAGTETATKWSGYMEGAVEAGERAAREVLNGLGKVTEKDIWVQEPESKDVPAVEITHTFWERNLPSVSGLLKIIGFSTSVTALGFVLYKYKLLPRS
Experimental: as §1, §2

Which IC50 (MAO-B) does the source give for C[C@H](N)C(=O)N[C@@H](CCCNC(=N)N)C(=O)NC1(C(=O)N[C@@H](CCCCN[C@@H]2C[C@H]2c2ccccc2)C(=O)NC2(C(=O)N[C@H](C(=O)N[C@@H](C)C(=O)N[C@@H](CCCNC(=N)N)C(=O)N[C@@H](CCCCN)C(=O)N[C@@H](CO)C(=O)N[C@H](C(=O)O)[C@@H](C)O)[C@@H](C)O)C3CC4CC(C3)CC2C4)C2CC3CC(C2)CC1C3 (stereo partly drawn) [2c] (H-AR[X1][Lys((1R,2S)-2-Ph-cPr)][X1]TARKST-OH; C-terminus assumed) here?
The IC50 was greater than 10 µM.

What about the IC50 (LSD1) of the same molecule?
Its IC50 is 0.0724 ± 0.004 µM.

What about the IC50 (MAO-A) of the same molecule?
The IC50 was greater than 10 µM.

How did the IC50 (MAO-B) turn out when C[C@H](N)C(=O)N[C@@H](CCCNC(=N)N)C(=O)NC(C)(C)C(=O)N[C@@H](CCCCN[C@@H]1C[C@H]1c1ccccc1)C(=O)NC(C)(C)C(=O)N[C@H](C(=O)N[C@@H](C)C(=O)N[C@@H](CCCNC(=N)N)C(=O)N[C@@H](CCCCN)C(=O)N[C@@H](CO)C(=O)N[C@H](C(=O)O)[C@@H](C)O)[C@@H](C)O [peptide 2a] (H-AR[Aib][Lys((1R,2S)-2-Ph-cPr)][Aib]TARKST-OH; C-terminus assumed) was run?
Its IC50 is greater than 10 µM.

And the IC50 (LSD1)?
Its IC50 is 0.0891 ± 0.0053 µM.

And the IC50 (MAO-A)?
Its IC50 is greater than 10 µM.

With N[C@@H]1C[C@H]1c1ccccc1 (relative stereo) [PCPA, trans-2-phenylcyclopropylamine, reference compound] as the molecule, how does the “MAO-A inactivation” value (MAO-A; peptides at 10 µM, PCPA as positive control) read?
Its value is “inactivated both MAO-A and MAO-B”.

For C[C@H](N)C(=O)N[C@@H](CCCNC(=N)N)C(=O)NC1(C(=O)N[C@@H](CCCCN[C@@H]2C[C@H]2c2ccccc2)C(=O)NC2(C(=O)N[C@H](C(=O)N[C@@H](C)C(=O)N[C@@H](CCCNC(=N)N)C(=O)N[C@@H](CCCCN)C(=O)N[C@@H](CO)C(=O)N[C@H](C(=O)O)[C@@H](C)O)[C@@H](C)O)CCCCC2)CCCCC1 [peptide 2b] (H-AR[Ac6c][Lys((1R,2S)-2-Ph-cPr)][Ac6c]TARKST-OH; C-terminus assumed), which IC50 (MAO-B) is on record?
The IC50 was greater than 10 µM.

And the IC50 (LSD1)?
Its IC50 is 0.0584 ± 0.0025 µM.

What about the LSD1 selectivity (LSD1; LSD1 selectivity, MAO-A/MAO-B assayed for selectivity toward LSD1) of the same molecule?
Its LSD1 selectivity is greater than 170 fold.

What about the “LSD1 inhibitory activity” value (LSD1) of the same molecule?
Its value is “the most potent LSD1 inactivator among the peptides tested in this study”.

And the IC50 (MAO-A)?
The IC50 was greater than 10 µM.

Which IC50 (MAO-B) does the source give for C[C@H](N)C(=O)N[C@@H](CCCNC(=N)N)C(=O)N[C@H](C(=O)N[C@@H](CCCCN[C@@H]1C[C@H]1c1ccccc1)C(=O)N[C@@H](CCC(N)=O)C(=O)N[C@H](C(=O)N[C@@H](C)C(=O)N[C@@H](CCCNC(=N)N)C(=O)N[C@@H](CCCCN)C(=O)N[C@@H](CO)C(=O)N[C@H](C(=O)O)[C@@H](C)O)[C@@H](C)O)[C@@H](C)O [peptide 1, reference compound] here?
The IC50 was greater than 10 µM.

And the IC50 (LSD1)?
Its IC50 is 0.126 ± 0.002 µM.

What about the “LSD1 inhibitory activity” value (LSD1) of the same molecule?
The value was “inactivated LSD1 potently compared to PCPA”.

And the IC50 (MAO-A)?
Its IC50 is greater than 10 µM.
